From US8796320B2, “1,3,4-Oxadiazole-2-carboxamide compound” (General Incorporated Association Pharma Valley Project …, priority 2009, dated 2014)
Where a name gives a salt, the structure may show the parent alone.

Experiments:
Assay type in all cases: cell-based
[1] = test system: Human lymphoma SCC-3 cells; assay: SCC-3 cell growth inhibition test (MTT method); conditions: 72-hour culture
Method: Human lymphoma SCC-3 cells purchased from Japan Health Sciences Foundation were cultured for […] at a density of 5000 cells/well in a 96-well plate with RPMI1640 (Sigma-Aldrich Corp.) containing 10% fetal bovine serum (FBS; GIBCO) as a culture medium.
Simultaneously with cell inoculation, each test compound diluted to various concentrations with an RPMI medium was added to each well. After 72-hour culture, cell growth inhibitory activity was determined by the MTT method (J. Immunol. Methods, 1993, 65, 581-593) using a microplate reader (NJ-2300, BioTek Instruments, Inc.).
The test results were indicated in a concentration (IC50) at which 50% cell growth was inhibited.

[2] = test system: STAT3; assay: STAT3 transcription inhibition test (reporter gene method); conditions: Homo sapiens; compound at 100 μM; STAT3 reporter HeLa stable cell line, oncostatin M 10 ng/mL, 4 hours; read-out: STAT3 transcription inhibitory activity (%)
Method: The inhibition of STAT3 transcription was evaluated by using STAT3 reporter HeLa stable cell line (Panomics Inc., catalog No. RC0003), a cell line for the reporter gene method, and performing the following method according to the appendix included therein.
STAT3, reporter HeLa stable cell line subcultured and maintained in a Dulbecco's modified Eagle's medium (DMEM) containing 10% fetal bovine serum, 100 units/mL penicillin, and 100 μg/mL streptomycin was inoculated at a concentration of 40000 cells/well to a 96-well plate (white) and attached to the plate by overnight incubation at 37° C. under 5% CO2. After addition of each evaluation compound adjusted to various concentrations (adjusted with a DMSO solution), the cells were precultured for 1 hour. Then, oncostatin M for activating STAT3 was added at a final concentration 10 ng/mL, and the cells were further cultured at 37° C. under 5% CO2 for 4 hours. Luciferase activity derived from the cells was determined using Steady-Glo Luciferase Assay System (Promega Corp.), and STAT3 transcriptional activity scores were calculated according to the following formula: STAT3 transcriptional activity score (%)=100×(Lchem−L0)/(LDMSO−L0) • L0: luminescence intensity obtained without stimulation with oncostatin M • Lchem: luminescence intensity obtained by the addition of a test sample • LDMSO: luminescence intensity obtained by the addition of only a solvent for dissolving a test sample
The test results were indicated in the rate of inhibition of STAT3 transcription by each compound at a concentration of 100 μM.

[3] = test system: MDA-MB-468; assay: MDA-MB-468 cell growth inhibitory activity; conditions: Homo sapiens; compound at 20 μM; MDA-MB-468, 72 hours
Method: MDA-MB-468 diluted with phenol red-free DMEM/F-12 (GIBCO; 10% FBS, 20 units/ml penicillin/streptomycin) was inoculated at a concentration of 2000 cells/well to a 96-well plate (Greiner Bio-One) and cultured overnight at 37° C. in the presence of 5% CO2. Then, a test sample solution (containing 2 (v/v)% DMSO) adjusted to 10 μM was added thereto at a concentration of 10 μL/well and contacted with the cells at 37° C. for 72 hours in the presence of 5% CO2. Each well was washed three times with a medium. Then, after addition of 100 μL/well of a medium and 20 μL/well of CellTiter 96 AQueous, One Solution Reagent (Promega Corp.), the cells were incubated at 37° C. for 2 hours in the presence of 5% CO2. Absorbance at 495 nm was measured using Multiplate reader (Molecular Devices, Inc.), and the rate of inhibition of cell growth was calculated according to the following formula: Rate of inhibition of cell growth (%)=100−100×(Abschem−bkgd)/(AbsDMSO−bkgd) • Abschem: absorbance obtained by the addition of a test sample • AbsDMSO: absorbance obtained by the addition of only a solvent for test sample dissolution • bkgd: absorbance obtained by the addition of CellTiter 96 AQueous One Solution Reagent to a medium for cell culture
The test results were indicated in the rate of inhibition of cell growth by each compound at a concentration of 20 μM.

Compound | IC50 [1] [nM] | inhibition at 100 µM [2] [%] | inhibition at 20 µM [3] [%]
O=C(Nc1nnc(-c2ccco2)o1)c1cccc(-c2ccc(Cl)cc2)c1 [Compound Ia-11, 4′-Chloro-N-[5-(2-furyl)-1,3,4-oxadiazol-2-yl]-3-biphenylcarboxamide] | 1800 | 67 | –
C=Cc1ccc(-c2cccc(C(=O)Nc3nnc(-c4ccco4)o3)c2)cc1 [Compound Ia-13, N-[5-(2-Furyl)-1,3,4-oxadiazol-2-yl]-4′-vinyl-3-biphenylcarboxamide] | 1000 | 67 | –
O=Cc1ccc(-c2cccc(C(=O)Nc3nnc(-c4ccco4)o3)c2)cc1 [Compound Ia-17, 4′-Formyl-N-[5-(2-furyl)-1,3,4-oxadiazol-2-yl]-3-biphenylcarboxamide] | 4000 | > 100 | 54
CC(=O)c1ccc(-c2cccc(C(=O)Nc3nnc(-c4ccco4)o3)c2)cc1 [Compound Ia-18, 4′-Acetyl-N-[5-(2-furyl)-1,3,4-oxadiazol-2-yl]-3-biphenylcarboxamide] | 1900 | 71 | –
N#Cc1ccc(-c2cccc(C(=O)Nc3nnc(-c4ccco4)o3)c2)cc1 [Compound Ia-21, 4′-Cyano-N-[5-(2-furyl)-1,3,4-oxadiazol-2-yl]-3-biphenylcarboxamide] | 1700 | 62 | 91
NS(=O)(=O)c1ccc(-c2cccc(C(=O)Nc3nnc(-c4ccco4)o3)c2)cc1 [Compound Ia-25, N-[5-(2-Furyl)-1,3,4-oxadiazol-2-yl]-4′-sulfamoyl-3-biphenylcarboxamide] | 53000 | 70 | –
Cn1ccc2ccc(-c3cccc(C(=O)Nc4nnc(-c5ccco5)o4)c3)cc21 [Compound Ia-43, N-[5-(2-Furyl)-1,3,4-oxadiazol-2-yl]-3-(1-methyl-6-indolyl)benzenecarboxamide] | 1800 | 74 | –
CN1CCc2cc(-c3cccc(C(=O)Nc4nnc(-c5ccco5)o4)c3)ccc21 [Compound Ia-44, N-[5-(2-Furyl)-1,3,4-oxadiazol-2-yl]-3-(1-methyl-5-indolinyl)benzenecarboxamide] | 1800 | 58 | –
Cn1ccc2cc(-c3cccc(C(=O)Nc4nnc(-c5ccco5)o4)c3)ccc21 [Compound Ia-50, N-[5-(2-Furyl)-1,3,4-oxadiazol-2-yl]-3-(1-methyl-5-indolyl)benzenecarboxamide] | 1100 | > 100 | 51
O=C(Nc1nnc(-c2ccco2)o1)c1cccc(-c2ccc(-c3ccccc3)c(F)c2)c1 [Compound Ia-76, 3′-Fluoro-N-[5-(2-furyl)-1,3,4-oxadiazol-2-yl]-3-(p-terphenyl)carboxamide] | 200 | 69 | 72
CCc1ccc(-c2ccc(-c3cccc(C(=O)Nc4nnc(-c5ccco5)o4)c3)cc2)cc1 [Compound Ia-78, 4″-Ethyl-N-[5-(2-Furyl)-1,3,4-oxadiazol-2-yl]-3-(p-terphenyl)carboxamide] | < 100 | 70 | 64
O=C(Nc1nnc(-c2ccco2)o1)c1cccc(-c2ccc(-c3ccc4ccccc4c3)cc2)c1 [Compound Ia-83, N-[5-(2-Furyl)-1,3,4-oxadiazol-2-yl]-4′-(2-naphthyl)-3-biphenylcarboxamide] | < 100 | 75 | 71
O=C(Nc1nnc(-c2ccco2)o1)c1cccc(-c2ccc(C3CCCCC3)cc2)c1 [Compound Ia-84, 4′-Cyclohexyl-N-[5-(2-furyl)-1,3,4-oxadiazol-2-yl]-3-biphenylcarboxamide] | < 100 | 74 | 68
O=C(Nc1nnc(-c2ccco2)o1)c1cccc(-c2ccc(N3CCOCC3)cc2)c1 [Compound Ia-87, N-[5-(2-Furyl)-1,3,4-oxadiazol-2-yl]-4′-morpholino-3-biphenylcarboxamide formate] | 600 | 92 | –
Cc1ccc(-c2cc(C(=O)Nc3nnc(-c4ccco4)o3)c3sc(N4CCCCC4)nc3n2)cc1 [Compound Ib-3, N-[5-(2-Furyl)-1,3,4-oxadiazol-2-yl]-5-(4-methylphenyl)-2-piperidino-7-thiazolo[4,5-b]pyridinecarboxamide] | – | > 100 | > 100
COc1ccc(-c2cc(C(=O)Nc3nnc(-c4ccco4)o3)c3sc(N4CCCCC4)nc3n2)cc1OC [Compound Ib-4, N-[5-(2-Furyl)-1,3,4-oxadiazol-2-yl]-5-(3,4-dimethoxyphenyl)-2-piperidino-7-thiazolo[4,5-b]pyridinecarboxamide] | 700 | > 100 | 78
O=C(Nc1nnc(-c2ccsc2)o1)c1cc(-c2ccccc2)nc2nc(N3CCCCC3)sc12 [Compound Ib-19, 5-Phenyl-2-piperidino-N-[5-(3-thienyl)-1,3,4-oxadiazol-2-yl]-7-thiazolo[4,5-b]pyridinecarboxamide] | – | 90 | 83
O=C(Nc1nnc(-c2ccco2)o1)c1cc(-c2cccs2)nc2nc(N3CCCC3)sc12 [Compound Ib-26, N-[5-(2-Furyl)-1,3,4-oxadiazol-2-yl]-2-(1-pyrrolidinyl)-5-(2-thienyl)-7-thiazolo[4,5-b]pyridinecarboxamide] | – | 60 | 76
O=C(Nc1nnc(-c2ccco2)o1)c1cc(-c2cccs2)nc2nc(N3CCCCC3)sc12 [Compound Ib-27, N-[5-(2-Furyl)-1,3,4-oxadiazol-2-yl]-2-piperidino-5-(2-thienyl)-7-thiazolo[4,5-b]pyridinecarboxamide] | – | 67 | 82
O=C(Nc1nnc(-c2ccco2)o1)c1cc(-c2ccccc2)nc2nc(N3CCSCC3)sc12 [Compound Ib-30, N-[5-(2-Furyl)-1,3,4-oxadiazol-2-yl]-5-phenyl-2-(4-thiomorpholinyl)-7-thiazolo[4,5-b]pyridinecarboxamide] | – | > 100 | 84
O=C(Nc1nnc(-c2ccco2)o1)c1cc(-c2ccccc2)nc2nc(N3CCC(F)(F)CC3)sc12 [Compound Ib-32, 2-(4,4-Difluoropiperidino)-N-[5-(2-furyl)-1,3,4-oxadiazol-2-yl]-5-phenyl-7-thiazolo[4,5-b]pyridinecarboxamide] | – | 80 | 86
COc1cc([N+](=O)[O-])ccc1-c1ccc(C(=O)Nc2nnc(-c3ccco3)o2)o1 [Compound Ic-18, N-[5-(2-Furyl)-1,3,4-oxadiazol-2-yl]-5-(2-methoxy-4-nitrophenyl)-2-furancarboxamide] | 16000 | – | 76
